Results taken from PMC3544269 (2012).

Key:
[1] = tested on: #3_18 (group 7) (DNA, aptamer) ATACCAGCTTATTCAATTAGCATGGTGCTGAGGCTTGATCTGGAGGTCGTGAACGAAAATTGGTCGTTTAGTTGGCTCGTAGATAGTAAGTGCAATCT; test: fluorescent aptamer release from capture-oligo magnetic beads; details: 100 mM NaCl, 5 mM KCl, 2 mM MgCl2, 1 mM CaCl2; 20 mM Tris-HCl pH 7.6, 21 °C; capture oligo i-ODN2Sp; 1 mM compound; threshold 1 pmol eluted
[2] = tested on: #13_83 (group 3 representative) (DNA, aptamer) ATACCAGCTTATTCAATTGGGGAGATCTTGAGGCTCGATCGATAGTAGCTGTGACAGTCTACGTTTTATGGTATGCGGGTAGATAGTAAGTGCAATCT; test: as above; details: 100 mM NaCl, 5 mM KCl, 2 mM MgCl2, 1 mM CaCl2; 20 mM Tris-HCl pH 7.6, 21 °C; capture oligo i-ODN2Sp; 1 mM compound; threshold 1 pmol eluted
[3] = tested on: #3_7 (group 1) (DNA, aptamer) ATACCAGCTTATTCAATTGGTGGTAGGATGGGCTCGATCGAGGTCTTCAGTCGGCTCGGTTTAGTTTATGTTCTCCTGTAGATAGTAAGTGCAATCT; test: fluorescent aptamer release from capture-oligo magnetic beads, one-site fit; details: 100 mM NaCl, 5 mM KCl, 2 mM MgCl2, 1 mM CaCl2; 20 mM Tris-HCl pH 7.6, 21 °C; capture oligo i-ODN2Sp displaced; apparent; kanamycin A 0-1.5 mM
[4] = tested on: #3_7 (group 1) (DNA, aptamer) ATACCAGCTTATTCAATTGGTGGTAGGATGGGCTCGATCGAGGTCTTCAGTCGGCTCGGTTTAGTTTATGTTCTCCTGTAGATAGTAAGTGCAATCT; test: fluorescent aptamer release from capture-oligo magnetic beads; details: 100 mM NaCl, 5 mM KCl, 2 mM MgCl2, 1 mM CaCl2; 20 mM Tris-HCl pH 7.6, 21 °C; capture oligo i-ODN2Sp; 1 mM compound; threshold 1 pmol eluted

Row | SMILES | binding [1] | binding [2] | KD [3] [µM] | binding [4]
1 | NC[C@H]1O[C@H](O[C@H]2[C@H](O)[C@@H](O[C@H]3O[C@H](CO)[C@@H](O)[C@H](N)[C@H]3O)[C@H](N)C[C@@H]2N)[C@H](O)[C@@H](O)[C@@H]1O | yes | no | 24 | 
2 | Cc1cc(NS(=O)(=O)c2ccc(N)cc2)no1 | no | no |  | no
3 | NC(=O)NS(=O)(=O)c1ccc(N)cc1 | no | no |  | no
4 | CC(C)NCC(O)c1ccc(NS(C)(=O)=O)cc1 (stereo not drawn) | no | no |  | no
